The target of test [1] is T1, rMaBGA (Marinomonas sp. BSi20584, UniProt Z9SNG8Y577).
T1 construct: predicted signal peptide (first 28 aa) removed; codon-optimised, pET-28a(+), E. coli BL21(DE3), Ni-NTA purified, tag not reported cut; about 100 kDa on SDS-PAGE
T1 sequence (Z9SNG8Y577 29-897): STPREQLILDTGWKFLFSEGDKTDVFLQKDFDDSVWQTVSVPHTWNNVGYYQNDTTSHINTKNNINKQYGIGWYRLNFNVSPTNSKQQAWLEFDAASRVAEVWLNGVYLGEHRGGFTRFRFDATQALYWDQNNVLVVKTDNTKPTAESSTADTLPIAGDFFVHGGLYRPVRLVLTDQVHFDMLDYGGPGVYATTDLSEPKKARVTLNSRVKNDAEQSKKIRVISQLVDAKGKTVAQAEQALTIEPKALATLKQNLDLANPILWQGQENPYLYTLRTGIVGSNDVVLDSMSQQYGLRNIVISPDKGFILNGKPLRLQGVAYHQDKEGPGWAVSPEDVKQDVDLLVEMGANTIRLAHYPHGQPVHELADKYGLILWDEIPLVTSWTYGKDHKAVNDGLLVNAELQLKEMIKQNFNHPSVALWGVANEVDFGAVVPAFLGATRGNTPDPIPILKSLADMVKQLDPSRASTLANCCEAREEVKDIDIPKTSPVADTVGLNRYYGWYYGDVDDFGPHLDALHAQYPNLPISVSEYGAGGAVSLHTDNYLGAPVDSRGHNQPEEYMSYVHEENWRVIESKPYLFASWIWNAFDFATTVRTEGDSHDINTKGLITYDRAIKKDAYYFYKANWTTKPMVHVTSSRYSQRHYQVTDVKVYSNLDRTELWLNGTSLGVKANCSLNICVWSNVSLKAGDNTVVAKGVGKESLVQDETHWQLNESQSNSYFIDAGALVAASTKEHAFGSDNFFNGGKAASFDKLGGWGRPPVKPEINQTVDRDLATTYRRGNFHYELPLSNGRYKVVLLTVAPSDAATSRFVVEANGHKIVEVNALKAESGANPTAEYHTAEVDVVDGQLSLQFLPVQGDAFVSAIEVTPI
Description: steady-state kinetics, nonlinear Michaelis-Menten fit; galactose by coupled enzymatic assay. Format: biochemical. The settings on record: pH and temperature not stated. The source says:
steady-state kinetics, nonlinear Michaelis-Menten fit; galactose by coupled enzymatic assay on rMaBGA

In test [2] the target is T1, rMaBGA. Briefly: steady-state kinetics, nonlinear Michaelis-Menten fit; o-nitrophenol absorbance at […] nm. Format: biochemical. The following applies: 0.1–10 mM substrate; standard assay 10 mM PBS, 30 °C (not restated for kinetics).

Regarding `CC(=O)N[C@H]1C(O)O[C@H](CO)[C@@H](O)[C@@H]1O[C@@H]1O[C@H](CO)[C@H](O)[C@H](O)[C@H]1O` (stereo partly drawn) [Galβ-(1,3)-GlcNAc], in test [1] (1–40 mM substrate), the Km worked out at 2110 ± 484 µM. In the case of `CC(=O)N[C@H]1C(O)O[C@H](CO)[C@@H](O[C@@H]2O[C@H](CO)[C@H](O)[C@H](O)[C@H]2O)[C@@H]1O` (stereo partly drawn) [Galβ-(1,4)-GlcNAc], the Michaelis-Menten constant (Km) in test [1] (1–50 mM substrate) was found to be 7020 ± 1180 µM. With `O=[N+]([O-])c1ccccc1O[C@@H]1O[C@H](CO)[C@H](O)[C@H](O)[C@H]1O` [ONPG], the Km in test [2] is 294 ± 44 µM.

One may read the Km as the concentration of substrate that gives half-maximal velocity.

(Values after article PMC10608614, “Biochemical Insights into a Novel Family 2 Glycoside Hydrolase with Both β-1,3-Galactosidase and β-1,4-Galactosidase Activity from the Arctic” (Marine Drugs, 2023).)
